The nature of experiment [1]: Luminescence Cell-Based Dose Response HTS to Identify Inhibitors of 5'UTR Stem-Loop Driven Prion Protein mRNA Translation in H4 Neuroglioblastoma Cells. [Related pubchem assays: 1827 (Project Summary), 1813 (Primary HTS)]. The experiment is classed as functional.
For experiment [2], the target named is T1, Sentrin-specific protease 8 (Homo sapiens, UniProt Q96LD8).
T1 sequence (Q96LD8 whole entry): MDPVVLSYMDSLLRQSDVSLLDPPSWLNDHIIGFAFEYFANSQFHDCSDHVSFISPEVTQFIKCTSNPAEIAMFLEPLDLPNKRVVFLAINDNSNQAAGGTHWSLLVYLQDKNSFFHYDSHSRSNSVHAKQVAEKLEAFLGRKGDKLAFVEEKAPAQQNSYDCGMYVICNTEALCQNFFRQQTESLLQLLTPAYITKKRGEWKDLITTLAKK
The experiment is classed as functional.

Experiment [3] addresses T2, Hexokinase HKDC1 (Homo sapiens, UniProt Q2TB90).
T2 sequence (Q2TB90 whole entry): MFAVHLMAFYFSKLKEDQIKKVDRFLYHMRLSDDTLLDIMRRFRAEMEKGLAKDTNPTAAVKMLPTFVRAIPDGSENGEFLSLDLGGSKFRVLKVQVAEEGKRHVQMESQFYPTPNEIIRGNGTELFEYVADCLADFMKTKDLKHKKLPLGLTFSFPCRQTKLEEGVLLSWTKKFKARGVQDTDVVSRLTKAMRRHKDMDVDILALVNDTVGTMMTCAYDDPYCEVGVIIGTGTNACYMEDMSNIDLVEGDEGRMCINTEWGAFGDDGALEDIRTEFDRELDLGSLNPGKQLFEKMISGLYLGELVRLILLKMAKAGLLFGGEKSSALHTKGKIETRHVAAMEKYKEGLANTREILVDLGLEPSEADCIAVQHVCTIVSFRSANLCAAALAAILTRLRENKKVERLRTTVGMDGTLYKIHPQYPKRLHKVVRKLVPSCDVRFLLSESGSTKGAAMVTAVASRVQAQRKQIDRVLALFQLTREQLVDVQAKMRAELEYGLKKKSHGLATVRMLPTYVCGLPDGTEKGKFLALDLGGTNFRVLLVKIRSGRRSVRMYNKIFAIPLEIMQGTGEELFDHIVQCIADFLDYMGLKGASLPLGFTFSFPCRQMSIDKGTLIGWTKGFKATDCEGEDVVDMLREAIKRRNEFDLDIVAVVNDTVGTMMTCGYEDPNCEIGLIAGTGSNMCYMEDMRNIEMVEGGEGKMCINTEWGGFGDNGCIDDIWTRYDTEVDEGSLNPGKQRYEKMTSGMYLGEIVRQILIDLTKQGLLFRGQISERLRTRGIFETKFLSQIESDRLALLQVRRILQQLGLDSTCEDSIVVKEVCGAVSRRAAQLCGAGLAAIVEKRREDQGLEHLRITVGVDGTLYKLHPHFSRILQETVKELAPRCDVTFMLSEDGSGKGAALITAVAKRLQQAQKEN
In words: inhibition of HKDC1 glucose phosphorylation – biochemical, W721R variant, dose response (AID 504729). The experiment is classed as functional.

In experiment [4] the target is T3, Streptokinase A (Streptococcus pyogenes serotype M1, UniProt P10520).
T3 sequence (P10520 whole entry): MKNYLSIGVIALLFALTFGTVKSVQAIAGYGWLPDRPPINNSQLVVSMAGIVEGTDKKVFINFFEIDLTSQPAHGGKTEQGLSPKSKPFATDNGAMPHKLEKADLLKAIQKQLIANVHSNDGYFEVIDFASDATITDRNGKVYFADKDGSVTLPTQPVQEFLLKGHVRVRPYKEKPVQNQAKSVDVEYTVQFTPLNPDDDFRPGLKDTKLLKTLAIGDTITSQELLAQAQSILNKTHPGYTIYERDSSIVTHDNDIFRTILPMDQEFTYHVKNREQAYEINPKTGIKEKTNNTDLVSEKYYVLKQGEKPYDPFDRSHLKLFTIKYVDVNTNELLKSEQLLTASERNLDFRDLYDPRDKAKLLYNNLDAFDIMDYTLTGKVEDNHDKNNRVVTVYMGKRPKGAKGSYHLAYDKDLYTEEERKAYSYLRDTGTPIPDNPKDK
In words: viability-normalized secreted streptokinase activity reduction – plasminogen activation absorbance, OD405, dose response (AID 1914).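 Note: secreted streptokinase activity via plasminogen activation per viability signal from cell pellet.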 It is filed as functional, Streptococcus pyogenes M1 GAS.

Experiment [5] is described as follows: decrease of insulin promoter-GFP reporter – imaging, high-content screening, mouse beta cells (AID 1628). The note with it: MIN6. The experiment is classed as functional.
For experiment [6], the system named is CHO. In words: CHO cell viability loss, potency – luminescence, cytotoxicity control for TLR9-MyD88 binding inhibitor project, dose response (AID 588339).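 Note: CHO cells stably coexpressing TLR9 and MyD88 fusions from primary screen; compound exposure lasted 48 hours before viability readout.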 The note with it: Cricetulus griseus. The experiment is classed as functional, cell-based, hamster.
The target of experiment [7] is Kappa-type opioid receptor (Homo sapiens, UniProt P41145). It is filed as functional.
Sequence of Kappa-type opioid receptor (P41145 whole entry): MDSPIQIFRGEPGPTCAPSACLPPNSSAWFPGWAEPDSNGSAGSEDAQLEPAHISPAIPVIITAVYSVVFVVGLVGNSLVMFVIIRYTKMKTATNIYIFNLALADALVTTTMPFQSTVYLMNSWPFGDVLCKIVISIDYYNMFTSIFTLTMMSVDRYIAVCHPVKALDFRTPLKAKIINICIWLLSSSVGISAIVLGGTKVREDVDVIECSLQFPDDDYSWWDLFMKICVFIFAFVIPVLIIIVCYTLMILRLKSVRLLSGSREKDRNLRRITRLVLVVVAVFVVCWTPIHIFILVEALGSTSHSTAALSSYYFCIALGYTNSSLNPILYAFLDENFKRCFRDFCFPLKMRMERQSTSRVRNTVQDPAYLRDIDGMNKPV
Experiment [8] has as its target Delta-type opioid receptor (Homo sapiens, UniProt P41143). In words: HTS Image-Based Screen for Antagonists of the DOR Receptor. [Related pubchem assays (depositor defined):AID1777, AID1785, AID1786, AID2133]. It is filed as functional.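 Note: U2OS cells expressing DOR stimulated with 100 nM SNC80 agonist.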
The nature of experiment [9]: reduction of Shn3 3'UTR-driven luciferase in osteoblasts – cell-based, Clone20 osteoblasts, firefly luciferase, cherry-picked, dose response (AID 624132).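 Note: firefly luciferase luminescence from reporter carrying the Shn3 3'UTR in osteoblasts.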 The experiment is classed as functional.
Experiment [10] deals with SUMO E1/E2 (Homo sapiens, UniProt P63279+Q9UBE0+Q9UBT2). Briefly: SAR analysis of SUMOylation using HTRF in an in-Vitro dose response assay. [Related pubchem assays (depositor defined):AID2006, AID2011, AID2018, AID2069, AID2658]. It is filed as functional.
Sequence of SUMO E1/E2 (Q9UBE0 whole entry, the tested form may be a part): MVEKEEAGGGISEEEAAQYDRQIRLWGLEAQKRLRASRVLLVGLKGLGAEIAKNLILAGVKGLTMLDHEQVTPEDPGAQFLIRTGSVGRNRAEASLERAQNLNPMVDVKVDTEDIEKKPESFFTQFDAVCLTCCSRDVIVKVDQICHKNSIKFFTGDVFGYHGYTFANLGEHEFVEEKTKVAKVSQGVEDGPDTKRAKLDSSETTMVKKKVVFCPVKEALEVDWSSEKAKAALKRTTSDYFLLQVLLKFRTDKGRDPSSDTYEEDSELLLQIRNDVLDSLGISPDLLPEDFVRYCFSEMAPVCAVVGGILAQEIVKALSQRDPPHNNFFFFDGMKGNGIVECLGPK
Sequence of SUMO E1/E2 (Q9UBT2 whole entry, the tested form may be a part): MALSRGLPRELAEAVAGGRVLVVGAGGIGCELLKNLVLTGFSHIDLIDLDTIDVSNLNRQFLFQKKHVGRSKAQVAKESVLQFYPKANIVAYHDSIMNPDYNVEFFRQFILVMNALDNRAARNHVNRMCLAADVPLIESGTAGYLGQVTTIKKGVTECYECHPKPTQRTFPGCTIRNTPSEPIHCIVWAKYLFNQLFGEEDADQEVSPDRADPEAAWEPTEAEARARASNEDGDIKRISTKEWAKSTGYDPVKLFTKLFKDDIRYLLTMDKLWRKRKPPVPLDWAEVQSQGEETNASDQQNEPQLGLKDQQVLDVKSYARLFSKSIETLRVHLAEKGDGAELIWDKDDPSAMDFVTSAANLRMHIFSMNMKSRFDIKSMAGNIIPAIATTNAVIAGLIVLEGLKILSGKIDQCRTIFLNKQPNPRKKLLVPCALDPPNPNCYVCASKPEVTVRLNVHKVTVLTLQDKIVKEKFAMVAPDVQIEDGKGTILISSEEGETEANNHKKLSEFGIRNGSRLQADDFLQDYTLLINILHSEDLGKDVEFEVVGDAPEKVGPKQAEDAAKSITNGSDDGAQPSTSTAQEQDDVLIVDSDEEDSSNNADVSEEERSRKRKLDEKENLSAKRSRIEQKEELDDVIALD
Sequence of SUMO E1/E2 (P63279 whole entry, the tested form may be a part): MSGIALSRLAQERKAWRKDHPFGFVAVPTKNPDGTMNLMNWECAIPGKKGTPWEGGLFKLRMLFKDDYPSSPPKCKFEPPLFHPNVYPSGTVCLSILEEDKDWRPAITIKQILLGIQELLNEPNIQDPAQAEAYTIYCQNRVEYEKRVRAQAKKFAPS
A short description of experiment [11]: viability loss in CEM21 cells – cell-based, CellTiter-Glo luminescence, cherry-picked, cytotoxicity control for viral fusion inhibitor project, dose response (AID 652042).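 Note: potency for signal decrease meaning cytotoxicity.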 The experiment is classed as functional.
Experiment [12] can be described thus: blockers of HIV-1 ZM109 envelope-driven cell-cell fusion – HeLa effector, CEM target cells, luciferase, cherry-pick, dose response (AID 652058).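 Note: luciferase signal from HIV-1 Env mediated cell-cell fusion of effector and target cells.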 It is filed as functional, cell-based.
Experiment [13] concerns the target T4, Cysteine protease ATG4B (Homo sapiens, UniProt Q9Y4P1).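 Note: Fluorescence-based dose-response confirmation assay measuring inhibition of ATG4B activity.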
T4 sequence (Q9Y4P1 whole entry): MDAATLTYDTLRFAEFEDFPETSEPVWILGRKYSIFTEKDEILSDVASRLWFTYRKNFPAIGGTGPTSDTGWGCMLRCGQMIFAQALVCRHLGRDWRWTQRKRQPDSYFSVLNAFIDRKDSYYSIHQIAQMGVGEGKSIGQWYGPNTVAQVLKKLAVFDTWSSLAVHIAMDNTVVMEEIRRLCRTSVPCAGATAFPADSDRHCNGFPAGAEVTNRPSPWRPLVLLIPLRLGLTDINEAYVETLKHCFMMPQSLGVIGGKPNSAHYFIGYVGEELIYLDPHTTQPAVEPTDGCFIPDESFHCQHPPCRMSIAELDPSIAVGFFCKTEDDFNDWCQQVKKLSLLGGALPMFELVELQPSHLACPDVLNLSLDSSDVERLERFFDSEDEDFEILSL
The experiment is classed as functional.

Experiment [14] deals with Protein-tyrosine kinase 2-beta (Homo sapiens, UniProt Q14289).
Sequence of Protein-tyrosine kinase 2-beta (Q14289 whole entry): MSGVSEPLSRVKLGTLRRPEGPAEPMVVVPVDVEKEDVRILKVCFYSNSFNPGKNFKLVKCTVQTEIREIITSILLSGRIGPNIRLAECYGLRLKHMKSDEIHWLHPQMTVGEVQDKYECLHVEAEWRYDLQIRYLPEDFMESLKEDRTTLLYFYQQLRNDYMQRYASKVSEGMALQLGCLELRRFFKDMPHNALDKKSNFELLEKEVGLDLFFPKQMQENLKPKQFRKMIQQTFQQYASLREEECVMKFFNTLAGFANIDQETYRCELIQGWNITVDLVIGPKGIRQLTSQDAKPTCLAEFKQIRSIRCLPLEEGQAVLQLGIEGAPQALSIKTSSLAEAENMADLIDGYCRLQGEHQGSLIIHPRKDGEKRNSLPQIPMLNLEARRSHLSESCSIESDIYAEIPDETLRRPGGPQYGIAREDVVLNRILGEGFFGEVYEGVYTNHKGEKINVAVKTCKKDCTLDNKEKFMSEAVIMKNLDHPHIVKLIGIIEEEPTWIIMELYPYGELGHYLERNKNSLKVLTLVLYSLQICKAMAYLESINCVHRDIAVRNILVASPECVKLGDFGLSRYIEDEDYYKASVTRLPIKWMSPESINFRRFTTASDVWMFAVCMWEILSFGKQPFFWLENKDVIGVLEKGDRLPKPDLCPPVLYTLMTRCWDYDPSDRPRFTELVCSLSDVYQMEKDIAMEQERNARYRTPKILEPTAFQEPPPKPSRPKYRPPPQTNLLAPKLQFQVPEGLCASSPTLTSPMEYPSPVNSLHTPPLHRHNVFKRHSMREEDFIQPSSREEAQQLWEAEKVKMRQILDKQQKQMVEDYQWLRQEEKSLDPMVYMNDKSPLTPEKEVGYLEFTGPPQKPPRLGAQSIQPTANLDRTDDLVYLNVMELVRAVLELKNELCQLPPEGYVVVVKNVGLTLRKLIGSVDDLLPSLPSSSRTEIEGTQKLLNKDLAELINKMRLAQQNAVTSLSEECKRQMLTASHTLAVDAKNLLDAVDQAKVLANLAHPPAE
Experiment [15] addresses 1-phosphatidylinositol 4,5-bisphosphate phosphodiesterase beta-3 (Homo sapiens, UniProt Q01970). In words: Fluorescence-based biochemical high throughput dose response assay to identify inhibitors of phospholipase C isozymes (PLC-B3).

Activity calls are given as the source filed them. A value given as a limit tells only on which side of the number the result lay.

Sequence of 1-phosphatidylinositol 4,5-bisphosphate phosphodiesterase beta-3 (Q01970 whole entry): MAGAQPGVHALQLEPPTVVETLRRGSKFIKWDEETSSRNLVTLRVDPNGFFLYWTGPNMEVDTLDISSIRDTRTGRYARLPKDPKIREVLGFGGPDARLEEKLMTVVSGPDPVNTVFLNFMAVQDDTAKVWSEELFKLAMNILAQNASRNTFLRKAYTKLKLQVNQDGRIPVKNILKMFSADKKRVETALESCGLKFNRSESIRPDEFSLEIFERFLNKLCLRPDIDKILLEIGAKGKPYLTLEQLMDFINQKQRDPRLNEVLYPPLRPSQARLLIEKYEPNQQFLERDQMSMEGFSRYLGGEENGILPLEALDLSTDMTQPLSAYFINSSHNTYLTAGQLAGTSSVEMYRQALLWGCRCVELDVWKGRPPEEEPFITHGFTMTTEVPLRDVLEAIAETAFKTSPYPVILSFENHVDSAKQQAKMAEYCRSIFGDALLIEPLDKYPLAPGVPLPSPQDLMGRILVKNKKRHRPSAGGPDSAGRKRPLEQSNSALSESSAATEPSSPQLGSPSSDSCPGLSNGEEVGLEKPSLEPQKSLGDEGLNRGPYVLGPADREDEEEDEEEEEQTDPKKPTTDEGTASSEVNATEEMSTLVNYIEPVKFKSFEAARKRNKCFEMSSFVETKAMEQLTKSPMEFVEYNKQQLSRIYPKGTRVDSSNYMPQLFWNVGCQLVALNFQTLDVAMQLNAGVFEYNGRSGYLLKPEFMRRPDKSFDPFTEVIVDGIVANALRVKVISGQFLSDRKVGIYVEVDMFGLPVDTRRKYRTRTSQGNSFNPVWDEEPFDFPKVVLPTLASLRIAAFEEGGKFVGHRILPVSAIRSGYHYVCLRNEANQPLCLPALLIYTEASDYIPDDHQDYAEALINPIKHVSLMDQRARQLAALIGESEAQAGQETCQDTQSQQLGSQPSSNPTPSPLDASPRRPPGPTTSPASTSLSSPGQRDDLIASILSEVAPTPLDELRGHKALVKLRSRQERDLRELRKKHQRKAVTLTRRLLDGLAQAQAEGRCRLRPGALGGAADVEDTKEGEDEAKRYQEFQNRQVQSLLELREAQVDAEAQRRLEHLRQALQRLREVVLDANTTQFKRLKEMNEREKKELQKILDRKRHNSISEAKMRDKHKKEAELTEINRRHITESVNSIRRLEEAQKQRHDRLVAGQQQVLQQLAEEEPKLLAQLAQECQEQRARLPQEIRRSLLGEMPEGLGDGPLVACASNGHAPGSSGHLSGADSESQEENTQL
Sequence of Delta-type opioid receptor (P41143 whole entry): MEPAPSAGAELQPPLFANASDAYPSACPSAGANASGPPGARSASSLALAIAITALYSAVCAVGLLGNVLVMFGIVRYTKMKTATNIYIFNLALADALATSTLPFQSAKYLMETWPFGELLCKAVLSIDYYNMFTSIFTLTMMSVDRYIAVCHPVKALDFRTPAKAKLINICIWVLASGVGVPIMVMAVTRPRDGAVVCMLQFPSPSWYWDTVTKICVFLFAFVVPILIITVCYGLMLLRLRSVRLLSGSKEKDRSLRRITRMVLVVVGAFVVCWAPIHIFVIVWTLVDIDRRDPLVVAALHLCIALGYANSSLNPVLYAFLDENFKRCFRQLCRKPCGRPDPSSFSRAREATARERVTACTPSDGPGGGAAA

`O=C1c2cc(F)ccc2-n2c1nc1ccccc1c2=O`: in experiment [1], the concentration for a half-maximal effect (EC50) is > 120 µM (not active). Further, the concentration for half-maximal inhibition (IC50) in experiment [2] was 0.962 µM (active).

`CCOC(=O)C1=C(c2ccc(OC)cc2)C(=O)c2ccccc2C1=O`: the concentration for half-maximal inhibition (IC50) in [3] was 2.32 µM (active). Further, in experiment [4], the EC50 is on record as > 150 µM (not active).

As for `O=C1C=C(N(CCO)Cc2ccccc2)c2ccccc2C1=O`, the IC50 in experiment [5] is 5.11 µM (active).

In the case of `CCC(=O)OCCNc1cc(Sc2nccn2C)c2nonc2c1[N+](=O)[O-]`, the values for the half-inhibitory concentration (IC50) in [6], in [7] and in [8] were 2.38 µM (active), 4.05 µM (active) and 29.7 µM (inactive), respectively. Further, in experiment [9], the half-maximal activity concentration (AC50) is 1.55 µM (active).

With `CCCCn1c(NC(=O)c2ccccc2Cl)c(C#N)c2nc3ccccc3nc21`, in experiment [10], the IC50 was 10.9 µM (active).

As to `O=C1C(=O)c2ccccc2-c2ccccc21` [9,10-PHENANTHRENEQUINONE], the figures for the half-maximal activity concentration (AC50) in experiment [11] and in experiment [12] were 1.93 µM (active) and 3.1 µM (active), respectively. The figures for the IC50 in [13], in experiment [14] and in experiment [15] were 1.25 µM (active), > 69.5 µM (not active) and > 122 µM (inactive), respectively.

Values taken from ChEMBL document CHEMBL1201862, “PubChem BioAssay data set” (2004).
